Data reported in article PMC10324063, “Comparative Saturation Binding Analysis of ^64Cu-Labeled Somatostatin Analogues Using Cell Homogenates and Intact Cells” (ACS Omega, 2023).
Where two headings read alike, the source gives them in different places. Marks after values point to notes of the source that are not given here. Positions of bridges follow the written chain, without caps; N, C: chain ends. Non-standard residues stand in square brackets, D forms with d. Residues, ends and D or L forms follow the SMILES beside them. *: point of attachment. NODAGA = O=C(O)CN1CCN(CC(=O)O)CCN(C(CCC(=O)*)C(=O)O)CC1; dPhe(4-NHCONH2) = NC(=O)Nc1ccc(C[C@@H](N)C(=O)O)cc1; Dihydroorotyl(S) = O=C1C[C@@H](C(=O)*)NC(=O)N1; Phe(4-Cl) = N[C@@H](Cc1ccc(Cl)cc1)C(=O)O; Phe(4-NH2) = Nc1ccc(C[C@H](N)C(=O)O)cc1

Legend:
MPC cells [1] = system: MPC cells; set-up: method as in Brandt et al.[16], Brandt et al.[17]; details: intact MPC cells, 20 nM radioligand, 1 h, 37 °C, acid wash glycine pH 2.8; previously published; ref Brandt et al.[16], Brandt et al.[17]; cited from earlier work
SST2 [2] = target: T1, SST2 (Mus musculus, UniProt P30875); assay: Saturation binding of 64Cu-labeled radioligands to MPC cell homogenates; details: read-out: Kd, MPC cell homogenate
T1 construct: endogenous in cells; host or cells: MPC (mouse pheochromocytoma) cells, passages 35-40
T1 sequence (P30875 whole entry): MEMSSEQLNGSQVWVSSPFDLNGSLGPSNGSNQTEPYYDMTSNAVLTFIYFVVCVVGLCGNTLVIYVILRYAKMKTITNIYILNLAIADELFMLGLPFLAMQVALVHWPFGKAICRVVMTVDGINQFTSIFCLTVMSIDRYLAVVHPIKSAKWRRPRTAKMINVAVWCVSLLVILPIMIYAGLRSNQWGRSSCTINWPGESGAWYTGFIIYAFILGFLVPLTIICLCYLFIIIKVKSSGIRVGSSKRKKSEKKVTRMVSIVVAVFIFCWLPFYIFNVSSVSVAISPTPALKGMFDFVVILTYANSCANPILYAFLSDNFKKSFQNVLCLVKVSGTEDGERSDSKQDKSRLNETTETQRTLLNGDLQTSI
Method: MPC cells (passages 35–40) were routinely cultured in collagen-coated flasks as described elsewhere[49] and harvested at 70–80% confluency in Dulbecco’s phosphate-buffered saline containing 2.0 mM ethylenediaminetetraacetic acid (EDTA) at 4 °C for 30 min. Cells were resuspended and frozen in fetal bovine serum containing 10% (v/v) DMSO and stored at −70 °C. After thawing, cells were washed and resuspended in ice-cold saturation assays buffer, pH 7.4, containing 50 mM Tris-HCl, 1 mM EDTA, 0.5 mM o-phenanthroline, and 0.1% (w/v) bovine serum albumin. Cells were homogenized in ice-cold saturation assay buffer supplemented with complete EDTA-free proteinase inhibitor (Roche, Basel Switzerland) using a Dounce homogenizer. Protein content of cell homogenates was measured at A280nm (setting 1 Abs = 1 mg/mL) using a nanodrop spectrophotometer (Thermo-Fisher Scientific).
For the measurement of total binding, 0.155 mL of cell homogenates were incubated with radioligands (molar activity (Am) = 25 MBq/nmol) at increasing final concentrations between 0.625 and 40 nM (final sample volume 0.2 mL) in Polystyrene tubes (5 mL, round bottom, clear, Greiner bio-one, Item no. 115101). […] Activity bound to filters was measured using the gamma counter Wizard (PerkinElmer). Activity in a series of radioligand standards was measured at increasing molar amounts between 0.625 and 40 nM. […]

SST2 [3] = target: T1, SST2; assay: Saturation binding of 64Cu-labeled radioligands to intact MPC cells (adherent); details: 1 h, 37 °C, mean (68% confidence interval) of one experiment in duplicate or triplicate
Method: A number of 3 × 10^5 cells/cm^2 were seeded in collagen-coated 48-well microplates (CELLSTAR 48 Well Cell Culture Multiwell Plates, Polystyrene, Greiner bio-one, Item no. 677180) and grown for three days. For binding assays, cell culture medium was removed and replaced by fresh medium supplemented with the radioligand (Am = 25 MBq/nmol) at increasing final concentrations between 0.321 and 40 nM (final sample volume 0.2 mL). […] Samples were incubated for 60 min at 37 °C. Incubation was stopped by washing with ice-cold Dulbecco’s PBS. Cells were lysed with 0.1 M NaOH containing 1% (w/v) SDS. Activity was measured in cell homogenates and in a series of radioligand standards containing increasing molar amounts between 0.06 and 8 pmol using the gamma counter Wizard (PerkinElmer). […] Measurements for total binding were performed in triplicate, while measurements for nonspecific binding were performed in duplicates.
Plots of “total binding” = f(radioligand) were analyzed by nonlinear regressions using the model of “one site—total, accounting for ligand depletion” as implemented in GraphPad Prism and Plots of “nonspecific binding” = f(radioligand) were analyzed by linear regressions. For the ligand depletion model, the term “NS” was constrained to the respective slopes obtained by the linear regressions. […]

[4] = Radioligand stability toward MPC cell homogenate under assay conditions; type: in vitro ADME, mouse; details: 40 nM radioligand, 37 °C, radio-HPLC of supernatant
Description: (§1) Considering the aforementioned exposure of the radioligands to intracellular components in cell homogenates, a degradation by intracellular proteases could lead to reduced radioligand concentrations and thus apparently higher Kd values. While most of the serine and cysteine proteases might be inhibited by the used inhibitor cocktail during homogenization (see Materials and Methods), a residual proteolytic activity cannot be excluded. Therefore, for the two radioligands, [^64Cu]Cu-NODAGA-NES2-TATE and [^64Cu]Cu-NODAGA-NES5-TATE, the stability toward cell homogenates and intact cells under assay conditions were exemplarily examined (Figure S3 in the Supporting Information).
(§2) Figure S3: Stability toward cell homogenate and intact cells
(§3) [64Cu]Cu-NODAGA-NES2-TATE and [64Cu]Cu-NODAGA-NES5-TATE (40 nM) were incubated at 37°C under assay conditions in the presence of MPC cell homogenate or MPC intact cells. After 1 h, an aliquot (160 µL) was withdrawn, mixed with “Supersol” (320 µL), which consists of 20% ethanol, 0.5% Triton X-100, 5 mM EDTA, 0.5 mM o-phenanthroline, and 0.1% saponin. This was followed by centrifugation at 13,500 rpm for 3 min (Thermo Scientific Heraeus Fresco 21). The supernatant was analyzed by radio-HPLC.1, 2 […]
(§4) (1 picture or pasted object on this page, not shown here)

[5] = Radioligand stability toward intact MPC cells under assay conditions; type: in vitro ADME, mouse; details: 40 nM radioligand, 37 °C, radio-HPLC of supernatant
Description: as §1, §2, §3, §4

MPC cells [6] = assay: Cell binding and uptake (acid wash) in MPC cells; type: cell-based, mouse; details: intact MPC cells, 20 nM radioligand, 1 h, 37 °C, acid wash 0.05 M glycine pH 2.8 for 5 min; nonspecific with 20 μM Acetyl-TATE; from mean values of one experiment in sextuplicate
Method: MPC cells were seeded into collagen-coated 24-well microplates and cultivated for 4 days. All washing steps were performed using PBS containing 0.9 mM CaCl2 and 0.5 mM MgCl2. Total radioligand uptake was measured after incubation with the radioligand (Am = 30 GBq/μmol) at a final concentration of 20 nM in RPMI 1640 medium with GlutaMAX supplement (Thermo Fisher Scientific) for 1 h at 37 and 4 °C. Nonspecific binding was determined in the presence of 20 μM Acetyl-TATE. The uptake fraction was measured after acid wash of cell surface-bound radioligand with wash buffer containing 0.05 M glycine, pH 2.8, for 5 min. The activity of cell homogenates was measured using the γ counter Wizard (PerkinElmer). The protein content of cell homogenates was measured as described above.
Nonspecific binding was determined in the presence of 20 µM Acetyl -TATE (radioligand concentration of 20 nM). Data shown in A and B are mean values (±SD) of one experiment, which was performed in sextuplicate. In C, the uptake fraction (“internalized” or not acid releasable radioligand, red bars in A, mean values) is expressed as percentage of specific total-bound radioligand (blue bars in A, mean values). The difference to 100% was assigned to “surface-bound” radioligand. For a better overview, the compound names were abbreviated. […]
specific binding of radioligand
Incubation at 37°C for 1 h […]

SMILES: CCCC[C@H](NC(=O)CCC(C(=O)O)N1CCN(CC(=O)O)CCN(CC(=O)O)CC1)C(=O)N[C@H](C(=O)N[C@@H](CCCCN=[N+]=[N-])C(=O)NCCOCCOCC(=O)N[C@H](Cc1ccccc1)C(=O)N[C@H]1CSSC[C@@H](C(=O)N[C@H](C(=O)O)[C@@H](C)O)NC(=O)[C@H]([C@@H](C)O)NC(=O)[C@H](CCCCN)NC(=O)[C@@H](Cc2c[nH]c3ccccc23)NC(=O)[C@H](Cc2ccc(O)cc2)NC1=O)C(C)C (stereo partly shown) [NES1-TATE]
- uptake fraction (internalized or not acid releasable radioligand) as percentage of specific total-bound radioligand (MPC cells [1]): 49 ^d %

SMILES: C[C@@H](O)[C@@H]1NC(=O)[C@H](CCCCN)NC(=O)[C@@H](Cc2ccc(NC(N)=O)cc2)NC(=O)[C@H](Cc2ccc(NC(=O)[C@@H]3CC(=O)NC(=O)N3)cc2)NC(=O)[C@H](NC(=O)[C@H](Cc2ccc(Cl)cc2)NC(=O)CCC(C(=O)O)N2CCN(CC(=O)O)CCN(CC(=O)O)CC2)CSSC[C@@H](C(=O)N[C@H](Cc2ccc(O)cc2)C(N)=O)NC1=O (stereo partly drawn) [JR11] ({NODAGA}-[Phe(4-Cl)][dC][Phe(4-NH2)](Dihydroorotyl(S))[dPhe(4-NHCONH2)]KTC[dY]-NH2; disulfide 2-7)
- Kd (SST2 [2]): 5.35 nM
- Kd (SST2 [3]): 8.17 nM

SMILES: C[C@@H](O)[C@H](NC(=O)[C@@H]1CSSC[C@H](NC(=O)[C@@H](Cc2ccccc2)NC(=O)COCCOCCNC(=O)[C@H](CCCCn2cc(CCC(=O)N[C@@H](CCCCNC(=O)CCCc3ccc(I)cc3)C(=O)O)nn2)NC(=O)[C@H](Cc2ccccc2)NC(=O)CNC(=O)[C@@H](CCCNC(=N)N)NC(=O)c2ccc(CNC(=O)CCC(C(=O)O)N3CCN(CC(=O)O)CCN(CC(=O)O)CC3)cc2)C(=O)N[C@@H](Cc2ccc(O)cc2)C(=O)N[C@H](Cc2c[nH]c3ccccc23)C(=O)N[C@@H](CCCCN)C(=O)N[C@@H]([C@@H](C)O)C(=O)N1)C(=O)O (stereo partly shown) [NES5-TATE]
- stability (radioligand remaining stable) after 1 h of incubation with MPC cell homogenate [4]: ≥ 87%
- stability (radioligand remaining stable) after 1 h of incubation with intact MPC cells [5]: ≥ 87%
- uptake fraction (internalized or not acid releasable radioligand) as percentage of specific total-bound radioligand (MPC cells [1]): 62 ^d %

SMILES: C[C@@H](O)[C@H](NC(=O)[C@@H]1CSSC[C@H](NC(=O)[C@@H](Cc2ccccc2)NC(=O)COCCOCCNC(=O)[C@H](CCCCN=[N+]=[N-])NC(=O)[C@H](Cc2ccccc2)NC(=O)CNC(=O)c2ccc(CNC(=O)CCC(C(=O)O)N3CCN(CC(=O)O)CCN(CC(=O)O)CC3)cc2)C(=O)N[C@@H](Cc2ccc(O)cc2)C(=O)N[C@H](Cc2c[nH]c3ccccc23)C(=O)N[C@@H](CCCCN)C(=O)N[C@@H]([C@@H](C)O)C(=O)N1)C(=O)O (stereo partly shown) [NES3-TATE]
- uptake fraction (internalized or not acid releasable radioligand) as percentage of specific total-bound radioligand (MPC cells [1]): 68 ^d %

SMILES: C[C@@H](O)[C@H](NC(=O)[C@@H]1CSSC[C@H](NC(=O)[C@@H](Cc2ccccc2)NC(=O)COCCOCCNC(=O)[C@H](Cc2cn(CCCCC(=O)N[C@H](CCCCNC(=O)CCCc3ccc(I)cc3)C(=O)O)nn2)NC(=O)CCC(C(=O)O)N2CCN(CC(=O)O)CCN(CC(=O)O)CC2)C(=O)N[C@@H](Cc2ccc(O)cc2)C(=O)N[C@H](Cc2c[nH]c3ccccc23)C(=O)N[C@@H](CCCCN)C(=O)N[C@@H]([C@@H](C)O)C(=O)N1)C(=O)O (stereo partly shown) [cLAB1-TATE]
- uptake fraction (internalized or not acid releasable radioligand) as percentage of specific total-bound radioligand (MPC cells [6]): 66%

SMILES: CCCC[C@H](NC(=O)c1ccc(CNC(=O)CCC(C(=O)O)N2CCN(CC(=O)O)CCN(CC(=O)O)CC2)cc1)C(=O)N[C@H](C(=O)N[C@@H](CCCCN=[N+]=[N-])C(=O)NCCOCCOCC(=O)N[C@H](Cc1ccccc1)C(=O)N[C@H]1CSSC[C@@H](C(=O)N[C@H](C(=O)O)[C@@H](C)O)NC(=O)[C@H]([C@@H](C)O)NC(=O)[C@H](CCCCN)NC(=O)[C@@H](Cc2c[nH]c3ccccc23)NC(=O)[C@H](Cc2ccc(O)cc2)NC1=O)C(C)C (stereo partly shown) [NES2-TATE]
- stability (radioligand remaining stable) after 1 h of incubation with MPC cell homogenate [4]: ≥ 87%
- stability (radioligand remaining stable) after 1 h of incubation with intact MPC cells [5]: ≥ 87%
- uptake fraction (internalized or not acid releasable radioligand) as percentage of specific total-bound radioligand (MPC cells [1]): 56 ^d %

SMILES: C[C@@H](O)[C@H](NC(=O)[C@@H]1CSSC[C@H](NC(=O)[C@@H](Cc2ccccc2)NC(=O)COCCOCCNC(=O)[C@H](CCCCN=[N+]=[N-])NC(=O)[C@H](Cc2ccccc2)NC(=O)CNC(=O)[C@@H](CCCNC(=N)N)NC(=O)c2ccc(CNC(=O)CCC(C(=O)O)N3CCN(CC(=O)O)CCN(CC(=O)O)CC3)cc2)C(=O)N[C@@H](Cc2ccc(O)cc2)C(=O)N[C@H](Cc2c[nH]c3ccccc23)C(=O)N[C@@H](CCCCN)C(=O)N[C@@H]([C@@H](C)O)C(=O)N1)C(=O)O (stereo partly shown) [NES4-TATE]
- uptake fraction (internalized or not acid releasable radioligand) as percentage of specific total-bound radioligand (MPC cells [1]): 53 ^d %

SMILES: C#CC[C@H](NC(=O)CCC(C(=O)O)N1CCN(CC(=O)O)CCN(CC(=O)O)CC1)C(=O)NCCOCCOCC(=O)N[C@H](Cc1ccccc1)C(=O)N[C@H]1CSSC[C@@H](C(=O)N[C@H](C(=O)O)[C@@H](C)O)NC(=O)[C@H]([C@@H](C)O)NC(=O)[C@H](CCCCN)NC(=O)[C@@H](Cc2c[nH]c3ccccc23)NC(=O)[C@H](Cc2ccc(O)cc2)NC1=O (stereo partly shown) [Pra-PEG2-TATE]
- uptake fraction (internalized or not acid releasable radioligand) as percentage of specific total-bound radioligand (MPC cells [6]): 48%
